Results on one compound are retold here after patent US11572590B2, “Methods for evaluating tumor cell spheroids using 3D microfluidic cell culture device” (Dana-Farber Cancer Institute, Inc., priority 2017, dated 2023).

Where two headings read alike, the source gives them in different places.

Holding throughout (assay): SelectScreen Kinase Profiling, single point inhibition and IC50 for off-target kinases
What all share (type): biochemical

Test [1] addresses off-target kinases (Homo sapiens, UniProt O94921). The conditions noted are these: CDK14 (PFTK1)/cyclin Y, LanthaScreen Binding. A general note: TR-FRET usually uses a lanthanide donor and a delayed reading to cut background.
In test [2] the target is off-target kinases (Homo sapiens, UniProt P48730). The conditions noted are these: CSNK1D (CK1 delta), ZLYTE, ATP Km app.
In test [3] the target is off-target kinases (Homo sapiens, UniProt Q9Y4K4). The conditions noted are these: MAP4K5 (KHS1), ZLYTE, ATP Km app.
The target of test [4] is off-target kinases (Homo sapiens, UniProt P51617). Particulars: IRAK1, ATP Km app, Adapta.
The target of test [5] is off-target kinases (Homo sapiens, UniProt Q9NYL2). The conditions noted are these: ZAK, LanthaScreen Binding.
Test [6] addresses off-target kinases (Homo sapiens, UniProt P07949, G691S). Particulars: RET G691S, mutant y, LanthaScreen Binding.
For test [7], the target named is T1, off-target kinases (Homo sapiens, UniProt Q9UKI8).
T1 sequence (Q9UKI8 1-766): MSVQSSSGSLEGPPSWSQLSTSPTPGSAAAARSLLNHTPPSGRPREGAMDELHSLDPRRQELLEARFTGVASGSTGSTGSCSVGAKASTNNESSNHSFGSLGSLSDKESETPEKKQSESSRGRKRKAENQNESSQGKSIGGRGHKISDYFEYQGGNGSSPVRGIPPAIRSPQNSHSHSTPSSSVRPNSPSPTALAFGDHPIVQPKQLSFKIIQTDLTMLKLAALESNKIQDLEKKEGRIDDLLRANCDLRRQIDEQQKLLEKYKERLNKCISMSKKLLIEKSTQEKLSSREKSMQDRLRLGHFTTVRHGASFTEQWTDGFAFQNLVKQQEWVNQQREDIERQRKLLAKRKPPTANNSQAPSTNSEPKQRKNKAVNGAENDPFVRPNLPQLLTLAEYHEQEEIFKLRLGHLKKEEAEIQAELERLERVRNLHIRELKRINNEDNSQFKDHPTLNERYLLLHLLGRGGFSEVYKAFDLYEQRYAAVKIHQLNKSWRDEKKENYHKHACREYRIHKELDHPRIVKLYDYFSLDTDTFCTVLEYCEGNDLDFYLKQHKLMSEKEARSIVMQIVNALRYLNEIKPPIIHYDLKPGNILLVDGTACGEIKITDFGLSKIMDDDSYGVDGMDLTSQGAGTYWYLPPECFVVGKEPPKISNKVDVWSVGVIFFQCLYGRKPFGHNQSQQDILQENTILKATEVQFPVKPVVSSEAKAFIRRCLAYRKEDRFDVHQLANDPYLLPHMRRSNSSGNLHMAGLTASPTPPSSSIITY
Particulars: TLK1, LanthaScreen Binding.

For test [8], the target named is off-target kinases (Homo sapiens, UniProt P22607). Particulars: FGFR3, ZLYTE, ATP Km app.

Chain of off-target kinases (Homo sapiens, UniProt P48730) (P48730 whole entry): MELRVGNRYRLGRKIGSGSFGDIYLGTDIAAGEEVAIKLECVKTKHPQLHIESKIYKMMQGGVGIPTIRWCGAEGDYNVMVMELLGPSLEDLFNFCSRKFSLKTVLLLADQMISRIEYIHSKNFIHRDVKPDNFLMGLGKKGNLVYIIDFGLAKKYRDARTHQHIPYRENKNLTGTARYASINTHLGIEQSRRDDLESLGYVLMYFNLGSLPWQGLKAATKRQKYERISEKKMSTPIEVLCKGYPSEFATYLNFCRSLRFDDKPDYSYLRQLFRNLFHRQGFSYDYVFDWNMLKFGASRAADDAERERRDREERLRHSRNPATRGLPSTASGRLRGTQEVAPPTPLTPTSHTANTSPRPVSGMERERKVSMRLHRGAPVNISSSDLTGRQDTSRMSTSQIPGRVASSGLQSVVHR
Chain of off-target kinases (Homo sapiens, UniProt Q9Y4K4) (Q9Y4K4 whole entry): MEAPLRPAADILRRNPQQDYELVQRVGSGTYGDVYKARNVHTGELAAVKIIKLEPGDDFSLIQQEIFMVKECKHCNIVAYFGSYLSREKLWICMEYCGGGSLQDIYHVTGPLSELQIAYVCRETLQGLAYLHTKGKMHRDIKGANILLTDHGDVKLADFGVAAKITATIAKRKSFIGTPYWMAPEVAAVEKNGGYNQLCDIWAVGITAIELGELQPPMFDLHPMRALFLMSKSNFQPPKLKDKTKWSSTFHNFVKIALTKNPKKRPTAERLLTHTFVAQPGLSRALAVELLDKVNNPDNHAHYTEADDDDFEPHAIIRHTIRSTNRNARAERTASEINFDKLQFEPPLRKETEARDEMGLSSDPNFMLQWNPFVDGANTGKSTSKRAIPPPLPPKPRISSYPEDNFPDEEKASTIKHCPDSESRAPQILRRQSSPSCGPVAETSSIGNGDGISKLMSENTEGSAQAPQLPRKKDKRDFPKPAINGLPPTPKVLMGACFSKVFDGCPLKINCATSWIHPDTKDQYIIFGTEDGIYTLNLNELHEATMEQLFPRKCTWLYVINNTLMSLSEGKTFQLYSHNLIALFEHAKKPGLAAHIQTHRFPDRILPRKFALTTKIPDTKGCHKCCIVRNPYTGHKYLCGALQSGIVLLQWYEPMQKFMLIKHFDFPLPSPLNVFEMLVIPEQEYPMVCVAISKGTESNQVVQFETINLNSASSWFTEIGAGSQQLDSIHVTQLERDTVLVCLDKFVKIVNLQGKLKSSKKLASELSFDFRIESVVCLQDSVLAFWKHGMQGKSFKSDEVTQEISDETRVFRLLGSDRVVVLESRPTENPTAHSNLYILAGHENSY
Chain of off-target kinases (Homo sapiens, UniProt Q9NYL2) (Q9NYL2 whole entry): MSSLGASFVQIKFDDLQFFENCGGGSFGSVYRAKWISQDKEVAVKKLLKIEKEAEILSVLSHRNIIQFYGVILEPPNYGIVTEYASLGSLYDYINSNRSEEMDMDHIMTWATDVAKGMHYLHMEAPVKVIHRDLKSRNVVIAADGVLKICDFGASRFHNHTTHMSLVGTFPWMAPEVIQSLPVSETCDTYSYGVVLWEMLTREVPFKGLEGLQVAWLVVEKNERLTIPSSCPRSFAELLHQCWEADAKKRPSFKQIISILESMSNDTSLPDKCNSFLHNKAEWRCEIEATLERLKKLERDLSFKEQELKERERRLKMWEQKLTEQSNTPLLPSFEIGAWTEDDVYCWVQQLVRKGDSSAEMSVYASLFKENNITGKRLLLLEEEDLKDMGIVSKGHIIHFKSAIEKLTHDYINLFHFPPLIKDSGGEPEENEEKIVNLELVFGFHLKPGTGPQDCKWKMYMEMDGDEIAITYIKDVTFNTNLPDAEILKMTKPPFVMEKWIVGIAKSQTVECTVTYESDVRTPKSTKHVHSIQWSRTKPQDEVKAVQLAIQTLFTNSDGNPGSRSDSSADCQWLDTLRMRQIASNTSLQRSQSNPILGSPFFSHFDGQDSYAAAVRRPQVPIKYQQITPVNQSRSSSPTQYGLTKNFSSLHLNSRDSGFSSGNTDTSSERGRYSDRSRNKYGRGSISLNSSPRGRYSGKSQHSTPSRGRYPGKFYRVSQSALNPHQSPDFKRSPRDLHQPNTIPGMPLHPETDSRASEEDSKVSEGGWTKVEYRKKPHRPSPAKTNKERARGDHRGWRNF
Chain of off-target kinases (Homo sapiens, UniProt P51617) (P51617 whole entry): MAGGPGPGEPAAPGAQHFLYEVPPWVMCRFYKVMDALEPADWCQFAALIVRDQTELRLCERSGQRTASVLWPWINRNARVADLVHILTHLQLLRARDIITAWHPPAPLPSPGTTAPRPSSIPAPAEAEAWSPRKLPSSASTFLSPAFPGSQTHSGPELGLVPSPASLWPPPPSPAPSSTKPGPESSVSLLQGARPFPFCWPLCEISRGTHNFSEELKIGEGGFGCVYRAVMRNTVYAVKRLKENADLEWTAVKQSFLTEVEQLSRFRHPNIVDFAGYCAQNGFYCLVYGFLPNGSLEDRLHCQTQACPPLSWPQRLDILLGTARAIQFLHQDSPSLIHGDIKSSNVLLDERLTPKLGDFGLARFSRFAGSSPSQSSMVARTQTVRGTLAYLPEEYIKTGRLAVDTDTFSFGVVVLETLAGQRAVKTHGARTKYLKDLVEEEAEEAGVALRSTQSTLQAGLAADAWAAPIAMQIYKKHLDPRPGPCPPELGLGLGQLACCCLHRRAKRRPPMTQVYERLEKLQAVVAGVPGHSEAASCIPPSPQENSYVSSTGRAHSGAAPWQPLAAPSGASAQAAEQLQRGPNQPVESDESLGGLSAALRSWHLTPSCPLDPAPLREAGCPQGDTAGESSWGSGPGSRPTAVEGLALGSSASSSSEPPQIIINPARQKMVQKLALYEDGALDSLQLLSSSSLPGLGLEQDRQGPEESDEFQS
Chain of off-target kinases (Homo sapiens, UniProt P07949, G691S) (P07949 29-1114 G691S): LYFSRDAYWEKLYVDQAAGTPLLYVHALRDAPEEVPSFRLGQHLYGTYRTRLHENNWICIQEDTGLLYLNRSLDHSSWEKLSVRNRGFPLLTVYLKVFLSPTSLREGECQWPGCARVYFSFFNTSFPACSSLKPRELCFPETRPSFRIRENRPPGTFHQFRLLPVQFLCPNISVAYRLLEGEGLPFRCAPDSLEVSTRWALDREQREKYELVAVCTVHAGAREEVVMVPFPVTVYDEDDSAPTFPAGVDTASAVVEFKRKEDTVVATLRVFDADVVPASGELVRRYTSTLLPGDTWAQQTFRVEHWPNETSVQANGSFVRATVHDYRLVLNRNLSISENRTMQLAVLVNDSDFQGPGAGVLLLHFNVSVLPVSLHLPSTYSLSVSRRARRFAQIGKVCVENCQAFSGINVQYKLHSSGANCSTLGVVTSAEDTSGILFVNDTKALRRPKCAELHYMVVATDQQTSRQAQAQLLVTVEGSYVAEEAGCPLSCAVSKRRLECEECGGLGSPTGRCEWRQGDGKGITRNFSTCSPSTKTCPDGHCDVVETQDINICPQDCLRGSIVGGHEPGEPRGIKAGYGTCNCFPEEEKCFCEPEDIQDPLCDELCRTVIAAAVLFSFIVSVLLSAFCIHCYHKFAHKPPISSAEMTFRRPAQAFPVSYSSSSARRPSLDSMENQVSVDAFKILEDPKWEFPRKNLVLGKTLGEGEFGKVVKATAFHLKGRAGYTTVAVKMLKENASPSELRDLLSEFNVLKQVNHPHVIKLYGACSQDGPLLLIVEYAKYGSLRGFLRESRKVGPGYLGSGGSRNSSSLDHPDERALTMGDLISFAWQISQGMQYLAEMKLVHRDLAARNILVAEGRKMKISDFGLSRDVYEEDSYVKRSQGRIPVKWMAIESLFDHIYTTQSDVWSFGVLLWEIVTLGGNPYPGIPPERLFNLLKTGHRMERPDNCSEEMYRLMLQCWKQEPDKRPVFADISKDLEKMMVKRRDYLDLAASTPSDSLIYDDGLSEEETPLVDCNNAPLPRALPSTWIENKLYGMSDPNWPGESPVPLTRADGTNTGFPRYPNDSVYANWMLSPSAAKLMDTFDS
Chain of off-target kinases (Homo sapiens, UniProt O94921) (O94921 whole entry): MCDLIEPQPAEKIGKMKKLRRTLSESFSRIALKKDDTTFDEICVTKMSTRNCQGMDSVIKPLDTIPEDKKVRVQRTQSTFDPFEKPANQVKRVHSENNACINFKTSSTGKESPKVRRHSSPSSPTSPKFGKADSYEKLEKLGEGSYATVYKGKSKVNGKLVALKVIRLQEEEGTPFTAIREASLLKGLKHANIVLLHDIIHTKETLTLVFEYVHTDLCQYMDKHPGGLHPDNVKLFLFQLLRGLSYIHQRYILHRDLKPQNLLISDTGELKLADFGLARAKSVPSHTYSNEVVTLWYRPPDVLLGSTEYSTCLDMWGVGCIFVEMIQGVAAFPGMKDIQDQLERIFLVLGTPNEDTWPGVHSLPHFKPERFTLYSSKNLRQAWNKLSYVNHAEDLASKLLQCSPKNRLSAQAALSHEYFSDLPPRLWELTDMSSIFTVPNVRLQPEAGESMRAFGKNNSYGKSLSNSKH

Consider `N#Cc1cc(-c2ncnc(Nc3ccc(N4CCN(C5COC5)CC4)cc3)n2)ccc1OC1CCOCC1` [Compound 1, 5-(4-((4-(4-(oxetan-3-yl)piperazin-1-yl)phenyl)amino)-1,3,5-triazin-2-yl)-2-((tetrahydro-2H-pyran-4-yl)oxy)benzonitrile], for which the inhibition (usually the drop in the measured response relative to a control, in per cent) on off-target kinases [1] (read-out: % Inhibition 1) was 56%; at off-target kinases [1] (read-out: % Inhibition 2), 51%; at off-target kinases [1] (read-out: % Inhibition Avg), 54%; at off-target kinases [2] (read-out: % Inhibition 1), -1%; on off-target kinases [2] (read-out: % Inhibition 2), -5%; at off-target kinases [2] (read-out: % Inhibition Avg), -3%. For the same compound, the inhibition was determined as 11% at off-target kinases [3] (read-out: % Inhibition 1); 12% on off-target kinases [3] (read-out: % Inhibition 2); 12% at off-target kinases [3] (read-out: % Inhibition Avg); 94% on off-target kinases [4] (read-out: % Inhibition 1); 96% at off-target kinases [4] (read-out: % Inhibition 2); 95% on off-target kinases [4] (read-out: % Inhibition Avg). The inhibition on off-target kinases [5] (read-out: % Inhibition 1) amounted to 6%; at off-target kinases [5] (read-out: % Inhibition 2), 10%; at off-target kinases [5] (read-out: % Inhibition Avg), 8%; at off-target kinases [6] (read-out: % Inhibition 1) it was 19%; at off-target kinases [6] (read-out: % Inhibition 2) it was 18%; at off-target kinases [6] (read-out: % Inhibition Avg) it was 18%. Besides, the inhibition on off-target kinases [7] (read-out: % Inhibition 1) stood at 13%; at off-target kinases [7] (read-out: % Inhibition 2), 17%; on off-target kinases [7] (read-out: % Inhibition Avg) it was 15%; on off-target kinases [8] (read-out: % Inhibition 1), 6%; at off-target kinases [8] (read-out: % Inhibition 2), 4%; on off-target kinases [8] (read-out: % Inhibition Avg), 5%.
